Assay results from patent publication US20220317132A1, “USE OF ENDOTHELIN RECEPTOR INHIBITOR FOR INHIBITING EXOSOME SECRETION OR INHIBITING PD-L1 EXPRESSION” (KYUNGPOOK NATIONAL UNIVERSITY INDUSTRY-ACADEMIC COOPERATION …, priority 2019, published 2022).

System: MDA-MB231 cells
Assay: Cytotoxic effect (MTT analysis)
Details: 24 hours, sulfisoxazole 100 μM, ambrisentan 1, 10, 100 μM, macitentan 100, 1000 nM, bosentan 10, 50 μM, FIG. 1
Description: MCF10A cells were cultured in Mammary epithelial cell growth medium (MEGM, Lonza) added with 5% fetal bovine serum, 1% antibiotics, 52 μg/ml bovine pituitary extract, 0.5 μg/ml hydrocortisone, 10 ng/ml EGF, and 5 μg/ml insulin. MDA-MB231 and MCF7 cells were cultured in Dulbecco's modified Eagle's medium (DMEM, Hyclone) added with 10% fetal bovine serum and 1% antibiotics.
MDA-MB231 cells were seeded at 1×10^5/well in a 24-well plate, and then cultured for 24 hours to allow time for cell stabilization. After culturing for 24 hours, the cells were treated with 100 μM of sulfisoxazole, 1, 10, and 100 μM of ambrisentan, 100 and 1000 nM of macitentan, and 10 and 50 μM of bosentan and cultured for 24 hours. Then, after treatment with MTT tetrazolium reagent, the cells were cultured for 4 hours. After 4 hours, reduced MTT formazan (3-(4,5-dimethylthiazol-2-yl)-2,5 diphenyl-tetrazolium bromide) was measured at 595 nm absorbance to confirm cell proliferation effects.

Structure (SMILES)	cytotoxicity (MTT, absorbance 595 nm)
Cc1noc(NS(=O)(=O)c2ccc(N)cc2)c1C [sulfisoxazole]	no cytotoxicity
COc1ccccc1Oc1c(NS(=O)(=O)c2ccc(C(C)(C)C)cc2)nc(-c2ncccn2)nc1OCCO [bosentan]	no cytotoxicity
